A short description of series [1]: Drug metabolism in human liver microsome assessed as (1S,3R)-3-acetamido-N-(5-chloro-4-(7-hydroxy-4,5,6,7-tetrahydropyrazolo[1,5-a]pyridin-3-yl)pyridin-2-yl)cyclohexanecarboxamide formation at 10 uM measured after 1 hr in presence of NADPH by LC-UV-MS analysis. The following applies: microsomes. In kind it is ADME. (Liver microsomes are vesicles of endoplasmic reticulum, rich in cytochrome P450 enzymes.)

A short description of series [2]: Drug metabolism in human hepatocytes assessed as (1S,3R)-3-acetamido-N-(5-chloro-4-(7-hydroxy-4,5,6,7-tetrahydropyrazolo[1,5-a]pyridin-3-yl)pyridin2-yl)cyclohexanecarboxamide metabolite formation. Type of series: ADME, cell-based, Hepatocyte.
Series [3] is described as follows: Drug metabolism in human hepatocytes assessed as (1S,3R)-3-acetamido-N-(5-fluoro-4-(5-(3-hydroxy-2,2-dimethylpropyl)-1H-pyrazol-4-yl)pyridin-2-yl)cyclohexanecarboxamide metabolite formation. Type of series: ADME, cell-based, Hepatocyte.
For series [4], the target named is Cyclin-dependent kinase 9 (Homo sapiens, UniProt P50750). The experiment in a line: Inhibition of CDK9 in human MCF7 cells assessed as reduction in RNA Polymerase 2 CTD phosphorylation at Ser2 residues measured after 6 hrs by immunofluorescence assay. Type of series: cell-based.
Sequence of Cyclin-dependent kinase 9 (P50750 whole entry): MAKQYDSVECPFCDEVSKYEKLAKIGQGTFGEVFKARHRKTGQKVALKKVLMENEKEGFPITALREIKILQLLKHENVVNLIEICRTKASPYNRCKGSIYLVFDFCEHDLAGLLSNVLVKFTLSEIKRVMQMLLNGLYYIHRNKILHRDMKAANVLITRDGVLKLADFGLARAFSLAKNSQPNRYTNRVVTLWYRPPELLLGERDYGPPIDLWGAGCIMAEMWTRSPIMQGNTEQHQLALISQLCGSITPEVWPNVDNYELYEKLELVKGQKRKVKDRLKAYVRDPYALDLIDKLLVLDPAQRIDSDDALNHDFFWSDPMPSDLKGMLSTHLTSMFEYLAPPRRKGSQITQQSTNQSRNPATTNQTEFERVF
Series [5] concerns the target CDK9/cyclin T1 (Homo sapiens, UniProt P50750). Briefly: Binding affinity to human CDK9/CyclinT assessed as equilibrium dissociation constant by surface plasmon resonance analysis. Type of series: protein-complex assay.
For series [6], the species on record is Homo sapiens. Briefly: Selectivity ratio of IC50 for CDK4 (unknown origin) in presence of 5 mM ATP to IC50 for Inhibition of recombinant full length human N-terminal GST-fused CDK9 (1 to 372 residues)/His-tagged CyclinT1 (1 to 726 residues) expressed in baculovirus infected insect cells.
Series [7] is described as follows: Drug metabolism in human hepatocytes assessed as (1S,3R)-3-acetamido-N-(5-fluoro-4-(6-hydroxy-5,5-dimethyl-5,6-dihydro-4H-pyrrolo[1,2-b]pyrazol-3-yl)pyridin-2-yl)cyclohexanecarboxamide metabolite formation. Type of series: ADME, cell-based, Hepatocyte.
The nature of series [8]: Clearance in mouse plasma at […], iv. The following applies: dose 2.4 µmol/kg. In kind it is ADME.
Series [9] is described as follows: Volume of distribution at steady state in Beagle dog at […], iv administered over 0.25 hrs formulated as solution in DMSO/Captisol. In kind it is ADME, organism-based, Canis lupus familiaris. The following applies: in vivo, dose 0.24 µmol/kg, read-out: Vdss.
The species named for series [10] is Homo sapiens. Briefly: Selectivity ratio of IC50 for CDK6 (unknown origin) in presence of 5 mM ATP to IC50 for Inhibition of recombinant full length human N-terminal GST-fused CDK9 (1 to 372 residues)/His-tagged CyclinT1 (1 to 726 residues) expressed in baculovirus infected insect cells.
Series [11] deals with Cyclin-dependent kinase 9 (Mus musculus) (UniProt Q99J95). The experiment in a line: In-vivo inhibition of CDK9 in CB17 SCID mouse xenografted with human NOMO1 cells assessed as reduction in RNA Polymerase 2 CTD phosphorylation at Ser2 residues administered intraperitoneally twice at 2 hrs dosing interval with 2 days on and 5 days off dosing schedule by Western blot analysis. In kind it is functional. The following applies: dose 5-15 mg/kg. A general note: In xenograft studies the graft and the host belong to different species.
Sequence of Cyclin-dependent kinase 9 (Mus musculus) (Q99J95 whole entry): as the sequence (P50750 whole entry) above, with S17T, R37K, K40Q, N258K, Y262F counted along it

A short description of series [12]: Drug metabolism in human liver microsome assessed as (1S,3R)-3-acetamido-N-(5-chloro-4-(6-hydroxy-5,5-dimethyl-5,6-dihydro-4H-pyrrolo[1,2-b]pyrazol-3-yl)pyridin-2-yl)cyclohexanecarboxamide formation at 10 uM measured after 1 hr in presence of NADPH by LC-UV-MS analysis. The following applies: microsomes. In kind it is ADME.
The subject of series [13] is MV4-11. The experiment in a line: Antitumor activity against human MV4-11 cells xenografted in ip dosed CB17 SCID mouse assessed as cell death administered twice daily at 2 hrs dose interval with 2 days on and 5 days off dosing schedule. Type of series: functional, organism-based.
In series [14] the target is Mitogen-activated protein kinase kinase kinase kinase 4 (Homo sapiens) (UniProt O95819). Briefly: Inhibition of recombinant human GST-tagged MAP4K4 catalytic domain expressed in baculovirus expression system at 1 uM by Lanthascreen assay relative to control. The following applies: time 60.0 min. (In TR-FRET formats the signal depends on donor and acceptor labels being close together.)
Sequence of Mitogen-activated protein kinase kinase kinase kinase 4 (Homo sapiens) (O95819 2-1239 limits assumed): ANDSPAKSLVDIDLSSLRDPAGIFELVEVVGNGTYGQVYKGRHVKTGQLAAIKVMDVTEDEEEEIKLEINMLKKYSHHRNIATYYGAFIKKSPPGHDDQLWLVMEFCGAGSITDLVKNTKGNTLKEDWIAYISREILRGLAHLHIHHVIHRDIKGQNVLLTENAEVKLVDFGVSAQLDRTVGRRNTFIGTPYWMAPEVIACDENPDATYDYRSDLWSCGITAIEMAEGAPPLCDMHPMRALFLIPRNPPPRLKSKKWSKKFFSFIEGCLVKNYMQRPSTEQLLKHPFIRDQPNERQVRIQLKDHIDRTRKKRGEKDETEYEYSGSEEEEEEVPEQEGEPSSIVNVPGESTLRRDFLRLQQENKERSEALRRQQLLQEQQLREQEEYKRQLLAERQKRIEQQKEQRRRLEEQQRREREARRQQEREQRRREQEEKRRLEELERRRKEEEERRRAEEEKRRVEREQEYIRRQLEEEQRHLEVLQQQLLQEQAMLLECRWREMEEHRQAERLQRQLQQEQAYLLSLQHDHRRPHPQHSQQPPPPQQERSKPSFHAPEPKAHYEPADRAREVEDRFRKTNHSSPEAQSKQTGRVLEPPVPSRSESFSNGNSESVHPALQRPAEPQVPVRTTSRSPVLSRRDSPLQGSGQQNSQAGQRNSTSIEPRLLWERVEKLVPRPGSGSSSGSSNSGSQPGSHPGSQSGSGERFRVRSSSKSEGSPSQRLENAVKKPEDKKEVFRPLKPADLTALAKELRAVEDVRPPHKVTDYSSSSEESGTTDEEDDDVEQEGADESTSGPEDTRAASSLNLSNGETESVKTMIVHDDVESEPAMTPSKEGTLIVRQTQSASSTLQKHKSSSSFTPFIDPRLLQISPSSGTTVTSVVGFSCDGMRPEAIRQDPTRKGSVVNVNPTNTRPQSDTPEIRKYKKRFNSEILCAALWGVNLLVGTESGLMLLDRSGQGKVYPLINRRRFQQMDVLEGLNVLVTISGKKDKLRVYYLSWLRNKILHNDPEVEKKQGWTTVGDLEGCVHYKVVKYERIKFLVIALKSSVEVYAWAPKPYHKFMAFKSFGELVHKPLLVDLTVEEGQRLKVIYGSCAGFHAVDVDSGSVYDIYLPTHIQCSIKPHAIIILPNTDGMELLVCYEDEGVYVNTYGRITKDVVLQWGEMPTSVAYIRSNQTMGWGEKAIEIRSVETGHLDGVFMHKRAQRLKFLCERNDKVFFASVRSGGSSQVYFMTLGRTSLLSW

The nature of series [15]: Drug metabolism in human hepatocytes assessed as (1S,3R)-3-acetamido-N-(5-chloro-4-(5-(3-hydroxy-2,2-dimethylpropyl)-1H-pyrazol-4-yl)pyridin-2-yl)cyclohexanecarboxamide metabolite formation. Type of series: ADME, cell-based, Hepatocyte.
Series [16] has as its system NOMO-1. The experiment in a line: Antitumor activity against human NOMO1 cells xenografted in CB17 SCID mouse assessed as cell death at 5 mg/kg, ip BID administered at 2 hrs dosing interval with 2 days on and 5 days off dosing schedule. Type of series: functional, organism-based.
In series [17] the test system is NOMO-1. Briefly: Antitumor activity against human NOMO1 cells xenografted in CB17 SCID mouse assessed as tumor growth inhibition at 5 mg/kg, ip BID administered at 2 hrs dosing interval with 2 days on and 5 days off dosing schedule measured 12 days post initial dose. The following applies: NOMO-1, ip, 288 h, time 12 day, read-out: TGI. Type of series: functional.

A short description of series [18]: Clearance in cynomolgus monkey plasma at 0.46 umol/kg, iv administered over 0.25 hrs formulated as solution in DMA/PEG400/Tween80. Type of series: ADME, organism-based, Macaca fascicularis. The following applies: dose 0.46 µmol/kg.
Series [19] has as its target Cyclin-dependent kinase 9 (Mus musculus) (UniProt Q99J95). Briefly: In-vivo inhibition of CDK9 in mouse xenografted with human MV4-11 cells assessed as reduction in RNA Polymerase 2 CTD phosphorylation at Ser2 residues at 5 to 15 mg/kg, ip BID administered at 2 hrs dose interval with 2 days on and 5 days off dosing schedule by Western blot analysis. Type of series: functional, organism-based. The following applies: dose 5-15 mg/kg.

Series [20] deals with MV4-11. Briefly: Antitumor activity against human MV4-11 cells xenografted in CB17 SCID mouse assessed as tumor growth inhibition at 5 mg/kg, ip BID administered at 2 hrs dose interval with 2 days on and 5 days off dosing schedule measured 33 days post initial dose. In kind it is functional. The following applies: MV4-11, ip, 792 h, time 33 day, read-out: TGI.
In series [21] the test system is MV4-11. The experiment in a line: Antitumor activity against human MV4-11 cells xenografted in CB17 SCID mouse assessed as tumor regression at 15 mg/kg, ip BID administered at 2 hrs dosing interval with 2 days on and 5 days off dosing schedule observed for 125 days. Type of series: functional. The following applies: time 125 day.
Series [22] can be described thus: Drug metabolism in human hepatocytes assessed 3-(4-(2-((1S,3R)-3-acetamidocyclohexanecarboxamido)-5-chloropyridin-4-yl)-1H-pyrazol-5-yl)-2,2-dimethylpropanoic acid metabolite formation. In kind it is ADME, cell-based, Hepatocyte.
Series [23] is described as follows: Intrinsic clearance in monkey cryopreserved hepatocytes assessed per million cells […]. In kind it is ADME, cell-based, Macaca mulatta, Hepatocyte. The following applies: rhesus monkey, read-out: CLH.
The target in series [24] is Dual specificity tyrosine-phosphorylation-regulated kinase 1A (Homo sapiens) (UniProt Q13627). Briefly: Inhibition of human recombinant full length GST-tagged DYRK1A expressed in baculovirus infected cells at 0.1 uM incubated for 60 mins by TR-FRET based LanthaScreen Eu kinase binding assay relative to control.
Series [25] addresses Mitogen-activated protein kinase 15 (Homo sapiens) (UniProt Q8TD08). Briefly: Inhibition of human recombinant N-terminal FLAG-tagged ERK7 expressed in Sf9 insect cells at 0.1 uM incubated for 60 mins by TR-FRET based LanthaScreen Eu kinase binding assay relative to control.
The target in series [26] is Glycogen synthase kinase-3 alpha (Homo sapiens, UniProt P49840). The experiment in a line: Inhibition of GSK3alpha (unknown origin) in presence of 5 mM ATP.
Sequence of Glycogen synthase kinase-3 alpha (P49840 whole entry, canonical isoform): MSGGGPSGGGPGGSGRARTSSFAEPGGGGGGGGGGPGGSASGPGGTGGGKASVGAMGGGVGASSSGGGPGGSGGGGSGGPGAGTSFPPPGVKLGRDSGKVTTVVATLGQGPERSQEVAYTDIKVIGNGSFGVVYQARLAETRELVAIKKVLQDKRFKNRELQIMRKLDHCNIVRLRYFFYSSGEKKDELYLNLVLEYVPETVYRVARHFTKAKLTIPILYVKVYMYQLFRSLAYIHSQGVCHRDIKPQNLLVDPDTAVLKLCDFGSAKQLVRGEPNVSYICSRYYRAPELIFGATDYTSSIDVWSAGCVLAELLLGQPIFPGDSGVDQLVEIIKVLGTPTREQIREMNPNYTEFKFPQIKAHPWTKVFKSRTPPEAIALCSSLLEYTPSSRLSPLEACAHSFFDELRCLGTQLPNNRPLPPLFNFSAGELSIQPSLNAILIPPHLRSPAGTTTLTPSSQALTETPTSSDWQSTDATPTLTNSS
In series [27] the target is Casein kinase I isoform gamma-2 (Homo sapiens, UniProt P78368). Briefly: Inhibition of CK1gamma2 (unknown origin) in presence of 5 mM ATP.
Sequence of Casein kinase I isoform gamma-2 (P78368 whole entry, canonical isoform): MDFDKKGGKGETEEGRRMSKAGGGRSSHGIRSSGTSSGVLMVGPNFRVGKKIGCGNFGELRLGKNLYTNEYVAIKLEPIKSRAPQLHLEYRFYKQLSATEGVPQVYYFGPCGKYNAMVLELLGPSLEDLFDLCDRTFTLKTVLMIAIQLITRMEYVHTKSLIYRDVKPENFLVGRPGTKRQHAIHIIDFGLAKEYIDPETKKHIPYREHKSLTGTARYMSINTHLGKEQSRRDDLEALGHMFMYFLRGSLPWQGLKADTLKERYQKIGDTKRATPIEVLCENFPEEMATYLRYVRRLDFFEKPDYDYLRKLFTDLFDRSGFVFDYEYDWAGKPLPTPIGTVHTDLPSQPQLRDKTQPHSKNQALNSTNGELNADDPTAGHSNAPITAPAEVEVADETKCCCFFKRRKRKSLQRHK

As a reminder, the IC50 is the concentration that gives 50% inhibition. In general, Kd refers to a measure of binding affinity in units of concentration. Broadly, the clearance is the rate of elimination divided by the concentration. Broadly, the inhibition is the relative decrease from the control value, in per cent.

Activity calls are given as the source filed them. The rule behind the calls is not given here.

Sequence of Mitogen-activated protein kinase 15 (Homo sapiens) (Q8TD08 whole entry): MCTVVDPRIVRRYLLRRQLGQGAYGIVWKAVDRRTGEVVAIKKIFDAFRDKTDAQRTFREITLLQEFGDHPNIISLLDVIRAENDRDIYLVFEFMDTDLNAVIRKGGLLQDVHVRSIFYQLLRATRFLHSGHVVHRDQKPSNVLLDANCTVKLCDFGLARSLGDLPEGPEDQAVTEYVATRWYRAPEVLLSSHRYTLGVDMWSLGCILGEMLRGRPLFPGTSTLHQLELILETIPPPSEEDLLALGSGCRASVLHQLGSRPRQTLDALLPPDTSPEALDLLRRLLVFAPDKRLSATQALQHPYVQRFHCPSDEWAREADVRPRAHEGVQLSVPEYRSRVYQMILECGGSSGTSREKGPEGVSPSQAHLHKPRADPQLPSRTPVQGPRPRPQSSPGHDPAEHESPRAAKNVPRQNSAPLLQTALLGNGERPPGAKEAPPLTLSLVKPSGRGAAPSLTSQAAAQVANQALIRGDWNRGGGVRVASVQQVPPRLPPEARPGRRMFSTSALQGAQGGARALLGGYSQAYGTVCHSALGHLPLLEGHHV
Sequence of CDK9/cyclin T1 (O60563 whole entry, the tested form may be a part): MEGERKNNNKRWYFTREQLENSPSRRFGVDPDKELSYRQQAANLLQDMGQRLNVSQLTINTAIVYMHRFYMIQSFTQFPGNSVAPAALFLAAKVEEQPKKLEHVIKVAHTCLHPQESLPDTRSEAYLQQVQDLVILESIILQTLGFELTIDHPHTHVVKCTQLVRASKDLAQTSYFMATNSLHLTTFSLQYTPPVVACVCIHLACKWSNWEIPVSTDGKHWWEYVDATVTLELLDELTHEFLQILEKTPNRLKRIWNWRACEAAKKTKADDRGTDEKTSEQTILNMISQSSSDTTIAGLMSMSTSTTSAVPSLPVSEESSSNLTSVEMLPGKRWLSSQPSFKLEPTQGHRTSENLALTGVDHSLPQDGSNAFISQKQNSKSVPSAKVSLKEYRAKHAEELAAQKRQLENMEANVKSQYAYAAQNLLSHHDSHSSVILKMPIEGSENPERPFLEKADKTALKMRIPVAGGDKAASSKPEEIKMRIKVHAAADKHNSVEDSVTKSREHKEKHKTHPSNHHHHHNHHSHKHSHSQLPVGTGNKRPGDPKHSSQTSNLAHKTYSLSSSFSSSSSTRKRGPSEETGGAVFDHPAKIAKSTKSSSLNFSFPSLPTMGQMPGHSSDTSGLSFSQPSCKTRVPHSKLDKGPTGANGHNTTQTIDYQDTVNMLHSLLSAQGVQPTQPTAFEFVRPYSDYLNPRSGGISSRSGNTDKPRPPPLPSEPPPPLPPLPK
Sequence of CDK9/cyclin T1 (P50750 whole entry, the tested form may be a part): as the sequence (P50750 whole entry) above

Take `CC(=O)N[C@@H]1CCC[C@H](C(=O)Nc2cc(-c3cnn4c3CCCC4)c(Cl)cn2)C1`: the Drug metabolism result in [1] and in [2] was “Metabolite_Detected” each time.
Turning to `CC(=O)N[C@@H]1CCC[C@H](C(=O)Nc2cc(-c3cnn4c3CC(C)(C)C4)c(F)cn2)C1`, the Drug metabolism result in series [3] and in series [7] was “Metabolite_Detected” each time. Besides, the IC50 in [4] was 25 nM. Moreover, the Kd in [5] worked out at 0.123 nM. For the same molecule, the Ratio IC50 in [6] and in series [10] was 16 throughout. In addition, the clearance in [8] is 70 mL/min/kg. For the same molecule, in [9], the Vd at 0.25 h is 1.2 L/kg.
For `CC(=O)N[C@@H]1CCC[C@H](C(=O)Nc2cc(-c3cnn4c3CC(C)(C)C4)c(Cl)cn2)C1` [ZEMIRCICLIB], the inhibition result in [11] is “Dose-dependent effect”; in series [14], 85%; in [24], 80%; in series [25] it was 83%. Moreover, the Drug metabolism entry in [12], in [15] and in [22] was “Metabolite_Detected” throughout. Further, the values for the Activity entry in series [13] and in [21] were “Dose-dependent effect” and 100%, respectively. Further, in series [16], the outcome was Active. The inhibition in vivo at 5 mg/kg was determined as 65% in [17] and 97% in series [20]. In [18], this molecule showed a clearance of 19 mL/min/kg. Besides, in [19], the inhibition entry is “Active”. For the same molecule, the hepatocyte CLint in series [23] came to 32 µL/min/1e6 cells. Besides, the IC50 is 187 nM in [26] and 6.66 µM in series [27].

The record behind these values is ChEMBL document CHEMBL4673352, “Discovery of AZD4573, a Potent and Selective Inhibitor of CDK9 That Enables Short Duration of Target Engagement for the Treatment of Hematological Malignancies” (J Med Chem, 2020).
